Tests used:
[1] = tested on: RAW264.7; assay: Inhibition of lipopolysaccharide-induced nitric oxide production in mouse RAW264.7 cells by Griess reagent based assay; type: functional, cell-based
[2] = tested on: RAW264.7; assay: Toxicity in lipopolysaccharide-induced mouse RAW264.7 cells by MTT-based colorimetric assay; type: cell-based

| IC50 [1] [µM] | Structure (SMILES) | Activity [2] |
| --- | --- | --- |
| 10.6 | COc1cc2c(c3c1C(=O)C[C@H](c1ccccc1)O3)C=CC(C)(CCC=C(C)C)O2 (stereo partly specified) | Non-Toxic |
| 16.2 | COc1cc2c(c3c1C(=O)C[C@H](c1ccc(O)cc1)O3)C=CC(C)(CCC=C(C)C)O2 (stereo partly specified) | Non-Toxic |
| 41.5 | COc1cc2c(c3c1C(=O)C[C@H](c1ccc(O)cc1)O3)C=CC(C)(CC/C=C(\C)CCC=C(C)C)O2 (stereo partly specified) | Non-Toxic |
| 26.1 | COc1cc2c(c3c1C(=O)C[C@H](c1ccccc1)O3)C=CC(C)(CC/C=C(\C)CCC=C(C)C)O2 (stereo partly specified) | Non-Toxic |
| 39.2 | COc1cc2c(c3c1C(=O)C[C@@H](c1ccc(O)cc1)O3)C=CC(C)(CC/C=C(\C)CCC=C(C)C)O2 (stereo partly specified) | Non-Toxic |
| 30.6 | COc1cc2c(c(O)c1C(=O)/C=C/c1ccc(O)cc1)C=CC(C)(CC/C=C(\C)CCC=C(C)C)O2 (stereo unspecified) | Non-Toxic |
| 14 | COc1cc2c(c3c1C(=O)C[C@@H](c1ccc(O)cc1)O3)C=CC(C)(CCC=C(C)C)O2 (stereo partly specified) | Non-Toxic |
| 13.5 | COc1cc2c(c3c1C(=O)C[C@@H](c1ccccc1)O3)C=CC(C)(CCC=C(C)C)O2 (stereo partly specified) | Non-Toxic |
| 13.5 | COc1cc2c(c(O)c1C(=O)/C=C/c1ccccc1)C=CC(C)(CC/C=C(\C)CCC=C(C)C)O2 (stereo unspecified) | Non-Toxic |
| 28.7 | COc1cc2c(c3c1C(=O)C[C@@H](c1ccccc1)O3)C=CC(C)(CC/C=C(\C)CCC=C(C)C)O2 (stereo partly specified) | Non-Toxic |

| Structure (SMILES) | IC50 [1] [µM] | Activity [2] |
| --- | --- | --- |
| N=C(N)NN [PIMAGEDINE] | 21.7 |  |

— ChEMBL document CHEMBL4339242, “Pyranoflavanones and Pyranochalcones from the Fruits of Amomum tsao-ko” (J Nat Prod, 2019)
